From ChEMBL document CHEMBL6078627, “Epigallocatechin and epigallocatechin-3-gallate are not inhibitors of tyrosinase” (Bioorg Med Chem Lett, 2024)
The source made the active and inactive calls. The rule behind the calls is not given here.

Experiments:
Assay type in all cases: protein assay
[1] = molecular target: T1, Mushroom tyrosinase (Agaricus bisporus) (UniProt O42713+Q00024+C7FF04+C7FF05); assay: Inhibition of mushroom Tyrosinase using L-DOPA as substrate assessed as change in absorbance at 50 to 100 uM at 305 nm by spectrophotometric analysis; details: dose 50-100 µM
[2] = molecular target: T1, Mushroom tyrosinase (Agaricus bisporus); assay: Inhibition of mushroom Tyrosinase using L-DOPA as substrate assessed as reduction in oxygen consumption measured after 10 mins
[3] = molecular target: T1, Mushroom tyrosinase (Agaricus bisporus); assay: Inhibition of mushroom Tyrosinase using L-DOPA as substrate assessed as reduction in oxygen consumption
[4] = molecular target: T1, Mushroom tyrosinase (Agaricus bisporus); assay: Inhibition of mushroom Tyrosinase using L-DOPA as substrate assessed as change in absorbance at 50 to 100 uM by spectrophotometric analysis; details: dose 50-100 µM

Compound	inhibition [1]	inhibition [2] [%]	inhibition [3]	inhibition [4]
O=C(O[C@@H]1Cc2c(O)cc(O)cc2O[C@@H]1c1cc(O)c(O)c(O)c1)c1cc(O)c(O)c(O)c1	Active	10	Active	Active
Oc1cc(O)c2c(c1)O[C@H](c1cc(O)c(O)c(O)c1)[C@H](O)C2	Active		Active	Active
O=C(O)c1cc(O)c(O)c(O)c1	Active		Active	Active
